Tests used:
thromboxane receptors = biological target: T1, thromboxane receptors (Cavia porcellus, UniProt A0A286Y4I8); assay: IC50 on the tracheal pressure in guinea pigs (bronchoconstriction induced by U46619 in vivo); conditions: guinea pig, iv, 5 min; anesthetized guinea pigs, antagonist injected 5 minutes before U46619 (2 μg/kg i.v.), jugular vein; read-out: IC50, antagonist dose which inhibits by 50% the increase in tracheal pressure caused by U46619
T1 construct: U46619 causes a bronchoconstriction which results in an increase in tracheal pressure; from tissue; host or cells: whole anesthetized guinea pig (in vivo, airways)
T1 sequence (A0A286Y4I8 1-347): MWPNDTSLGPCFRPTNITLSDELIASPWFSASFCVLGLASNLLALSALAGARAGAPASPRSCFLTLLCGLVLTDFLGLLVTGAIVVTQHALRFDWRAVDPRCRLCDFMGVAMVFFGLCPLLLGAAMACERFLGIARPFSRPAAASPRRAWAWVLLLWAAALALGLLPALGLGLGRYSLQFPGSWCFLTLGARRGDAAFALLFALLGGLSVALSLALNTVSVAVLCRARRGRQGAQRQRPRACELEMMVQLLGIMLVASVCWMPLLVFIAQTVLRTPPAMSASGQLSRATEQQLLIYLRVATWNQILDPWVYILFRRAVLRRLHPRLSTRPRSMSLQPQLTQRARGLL
From the text: Male albino guinea pigs (350-400 g), subjected to an 18-hour water diet, are anesthetized with ethylcarbamate (1.25 g/kg i.p.). A catheter is introduced into the carotid artery in order to measure the blood pressure by means of a pressure cell. A second catheter is introduced introduced into the jugular vein and is used for injecting the pharmacological substances. The trachea is cannulated and the guinea pig is placed under assisted respiration by means of a respirator. The temperature of the animal is kept at 37° C. by means of a thermostated cover. A needle pricked into the tracheal cannula is connected to a pressure cell and allows the tracheal pressure to be recorded. The guinea pigs are pretreated with d-tubocurarine (1 mg/kg i.v.) and with indomethacin (10 mg/kg i.v.). Injected at a dose of 2 μg/kg i.v., U46619 causes a bronchoconstriction which results in an increase in tracheal pressure and induces an increase in blood pressure. The responses to U46619 are reversible and reproducible if the injections are performed every 10 minutes.
The antagonists of thromboxane receptors are injected 5 minutes before the injections of U46619. The antagonist dose which inhibits by 50% the increase in tracheal pressure caused by U46619 is determined (IC50).

TXA2 receptors [1] = biological target: T2, TXA2 receptors (Cavia porcellus, UniProt A0A286Y4I8); assay: Determination of the pA2 values on guinea pig trachea (contractions caused by U46619); format: cell-based; conditions: guinea pig tracheal rings, 37° C., agonist U46619 10^-9 M to 10^-5 M, antagonist contact 20 minutes; read-out: pA2 (negative logarithm of the concentration of antagonist in the presence of which twice the amount of agonist is required for the same effect) (converted)
T2 construct: the trachea is rapidly removed and then cut out into rings containing two cartilages; from tissue; host or cells: guinea pig trachea rings
T2 sequence (A0A286Y4I8 1-347): T1 sequence (A0A286Y4I8 1-347)
Experimental: 400-500-gram albino male guinea pigs were sacrificed by striking the nape of the neck and by pulling the neck. The throat is cut and the trachea is rapidly removed and then cut out into rings containing two cartilages. These rings are mounted between two hooks in cuvettes thermostated at 37° C., containing physiological saline (composition in mM: 118 NaCl; 25 NaHCO3; 10 glucose; 4.7 KCl; 1.25 CaCl2; 1.19 MgSO4; 1.14 KH2 PO4).
The physiological saline is bubbled with a mixture of 95% O2 -5% CO2. The bottom hook constitutes the fixed point while the upper hook is connected to an isometric force sensor. The tissues are placed under a basal tension of 3.5 grams. The pharmacological substances studied are prepared immediately before use. The drugs are solubilized in water or in dimethyl sulfoxide.
After mounting, the preparations are allowed to stand for 90 minutes, rinsings being carried out every 30 minutes. After readjusting the basal tension, a contraction generated by a single dose of agonist (U46619; 10^-5 M) is generated in order to stabilize subsequent contractions. After washing and returning to the base line, a first effect/concentration curve is produced by the addition of cumulative doses of U46619 (10^-9 M to 10^-5 M; the interval between the doses is a semilog). This first experiment makes it possible to calculate the effective concentration 50% (EC50) "control".
This EC50 is routinely calculated in the following manner: the tension values are first converted to percentages relative to the maximum effect, these percentages are then plotted on a graph with the percentages on the y-axis and the log(concentration) values on the x-axis. A linear regression is then performed on the points between 10% and 90% (which corresponds to the linear portion of the sigmoid curve). The concentration corresponding to half maximum effect (50%) can be easily calculated by means of the parameters of the straight line.
After washing and returning to the base line, the organ is placed in contact with the antagonist ([…]) for 20 minutes. A second effect/concentration curve is then produced in the presence of the antagonist and the "treated" EC50 can then be calculated. All the elements required for calculating the pA2 (competitive antagonism) or the pD2 (noncompetitive antagonism) are thus available.
The pA2 (which represents the negative logarithm of the concentration of antagonist in the presence of which twice the amount of agonist is required in order to obtain the same effect) is determined by plotting on a graph the log((L/l)-1) values relative to the log(concentration of antagonist), with L=effect in the presence of antagonist and 1=control effect. In this test, the pA2 values for the compounds of Examples 14 and 18 are as follows: […]

TXA2 receptors [2] = biological target: T3, TXA2 receptors (Oryctolagus cuniculus, UniProt Q6WQI8); assay: Platelet aggregation induced by U46619 in rabbit platelet-rich plasma (PRP); format: cell-based; conditions: 37° C., antagonist added 3 min before U46619 (1.2 μM), read-out: IC50, concentration which induces 50% inhibition of the aggregation response induced by U46619
T3 construct: citrated platelet-rich plasma, U46619-induced aggregation
T3 sequence (Q6WQI8 1-233): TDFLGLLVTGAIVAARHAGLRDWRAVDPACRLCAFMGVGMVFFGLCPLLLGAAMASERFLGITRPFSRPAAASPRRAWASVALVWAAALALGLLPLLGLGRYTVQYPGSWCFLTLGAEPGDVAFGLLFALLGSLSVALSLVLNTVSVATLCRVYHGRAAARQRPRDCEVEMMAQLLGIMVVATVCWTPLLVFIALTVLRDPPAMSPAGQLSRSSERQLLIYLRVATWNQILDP
Experimental: The rabbits (2-3 kg) are anesthetized with sodium pentobarbital (30 mg/kg i.v.). After cannulation of the left carotid artery, the blood is collected over sodium citrate (0.109 M) (1 vol. of citrate per 9 vol. of blood).
The plasma which is high in platelets (PRP) is obtained by centrifugation (20° C.) at 250 g for 20 minutes and the plasma which is low in platelets (PPP) by centrifugation at 1000 g (10 min). The number of platelets (PL) in the PRP is adjusted to between 300-350,000 pl/mm^3 by dilution with autologous PPP. The PRP is stored at room temperature up to the time of the test and is used within 4 hours following the collection. Platelet aggregation is performed at 37° C. in glass tubes siliconized by means of an aggregometer. The PRP and PLs are stirred at 1000 rpm (revolution per minute). In order to study the activity of the thromboxane antagonists, the PRP is incubated for 1 min at 37° C., and the antagonist is then added for a period of 3 min before adding the agonist U46619 (1.2 μM). The final volume of the cuvette is then 250 μl. The extent of platelet aggregation is determined by measuring the maximum amplitude of the aggregation plots and is expressed as a percentage of light transmission (% T). The activity of the antagonists is expressed as IC50, that is to say the concentration of the substance which induces 50% inhibition of the aggregation response induced by U46619.

SMILES	ED50 (thromboxane receptors) [mg/kg]	Kb (TXA2 receptors [1]) [nM]	IC50 (TXA2 receptors [2]) [nM]
O=C(O)CCC/C=C\[C@@H]1CN(Cc2ccccc2)C[C@@H]1c1ccccc1O (relative stereo) [Example 13, (5Z) -6-[(3α,4α) -1-Benzyl-4-(2-hydroxyphenyl)pyrrolidin-3-yl]hex-5-enoic acid]	2.28	–	–
O=C(O)CCC/C=C\C[C@@H]1CN(Cc2ccccc2)C[C@@H]1c1ccccc1O (relative stereo) [Example 14, (5Z)-7-[(3α,4α)-1-Benzyl-4-(2-hydroxyphenyl)pyrrolidin-3-yl]hept-5-enoic acid]	1.02	282	–
O=C(O)CC/C=C\C[C@@H]1CN(Cc2ccccc2)C[C@@H]1c1ccccc1O (relative stereo) [Example 15, (4Z) -6[(3α,4α) -1-Benzyl-4-(2-hydroxyphenyl)pyrrolidin-3-yl]hex-4-enoic acid]	0.177	–	–
O=C(O)CC/C=C\C[C@@H]1CN(S(=O)(=O)c2ccc(Cl)cc2)C[C@H]1c1ccccc1O (relative stereo) [Example 18, (4Z)-6-[(3α, 4β)-1-(4-Chlorophenylsulfonyl)-4-(2-hydroxyphenyl)pyrrolidin-3-yl]hex-4-enoic acid]	0.03	7.94	5400
CC(C)C(=O)N1C[C@@H](C/C=C\CCC(=O)O)[C@@H](c2ccccc2O)C1 (relative stereo) [Example 19]	0.1	200	–
CC(C)C(=O)N1C[C@@H](C/C=C\CCC(=O)O)[C@H](c2ccccc2O)C1 (relative stereo) [Example 20, (4Z)-6-[(3α,4β)-1-Isobutyroyl-4-(2-hydroxyphenyl)pyrrolidin-3-yl]hex-4-enoic acid]	1.31	–	–
O=C(O)CC/C=C\C[C@H]1CN(Cc2cccnc2)C[C@H]1c1ccccc1O (relative stereo) [Example 21, (4Z)-6-[(3α, 4α)-4-(2-hydroxyphenyl)-1-[(3-pyridyl)methyl]pyrrolidin-3-yl]hex-4-enoic acid]	1.03	1580	–
O=C(O)CC/C=C\C[C@@H]1CN(C(=O)Nc2ccccc2)C[C@@H]1c1ccccc1O (relative stereo) [Example 22, (4Z)-6-[(3α,4α)-1-Phenylaminocarbonyl-4-(2-hydroxyphenyl)pyrrolidin-3-yl]hex-4-enoic acid]	1.21	–	4000
CCCCCCC(=O)N1C[C@@H](C/C=C\CCC(=O)O)[C@@H](c2ccccc2O)C1 (relative stereo) [Example 23, (4Z)-6-[(3α,4α)-1-Heptanoyl-4-(2-hydroxyphenyl)pyrrolidin-3-yl]hex-4-enoic acid]	0.43	20	–
O=C(O)CC/C=C\C[C@@H]1CN(S(=O)(=O)c2cccc3cnccc23)C[C@@H]1c1ccccc1O (relative stereo) [Example 24, (4Z)-6-[(3α,4α)-1-[(Isoquinol-5-yl)sulfonyl]-4-(2-hydroxyphenyl)pyrrolidin-3-yl]hex-4-enoic acid]	0.01	0.316	800
O=C(O)CC/C=C\C[C@@H]1CN(S(=O)(=O)c2cccc3cnccc23)C[C@H]1c1ccccc1O (relative stereo) [Example 25, (4Z)-6-[(3α,4β)-1-[(Isoquinol-5-yl)sulfonyl]-4-(2-hydroxyphenyl)pyrrolidin-3-yl]hex-4-enoic acid]	0.06	–	5000
O=C(O)CC/C=C\C[C@@H]1CN(S(=O)(=O)c2cccc3cccnc23)C[C@@H]1c1ccccc1O (relative stereo) [Example 27, (4Z)-6-[(3α,4α)-1-[(Quinol-8-yl)sulfonyl]-4-(2-hydroxyphenyl)pyrrolidin-3-yl]hex-4-enoic acid]	0.03	–	–
O=C(O)CC/C=C\C[C@@H]1CN(S(=O)(=O)c2cccc3ccccc23)C[C@@H]1c1ccccc1O (relative stereo) [Example 28]	0.01	1.58	500
O=C(O)CC/C=C\C[C@@H]1CN(S(=O)(=O)c2ccc3ccccc3c2)C[C@@H]1c1ccccc1O (relative stereo) [Example 29]	0.11	–	–
O=C(O)CCC/C=C\C[C@@H]1CN(S(=O)(=O)c2cccc3cnccc23)C[C@@H]1c1ccccc1O (relative stereo) [Example 30, (5Z-7-[(3α,4α)-1-[(Isoquinolyl-5-yl)sulfonyl]-4-(2-hydroxyphenyl)pyrrolidin-3-yl)]hept-5-enoic acid]	0.08	–	500

Source: US5407946A, “Pyrrolidine compounds which are useful as thromboxane AZ-inhibitors” (Adir et Compagnie, priority 1992, dated 1995)
